Assay type in all cases: functional
Test [1] has as its system Pseudomonas aeruginosa. The test can be described thus: Antimicrobial activity against Pseudomonas aeruginosa isolate M136074 expressing IMP-22 beta lactamase gene by Etest.
The test system of test [2] is Pseudomonas aeruginosa. Nature of the test: Antimicrobial activity against Pseudomonas aeruginosa isolate 26285 expressing IMP-13 beta lactamase gene by Etest.
Test [3] concerns Pseudomonas aeruginosa. Nature of the test: Antimicrobial activity against Pseudomonas aeruginosa isolate 22843 expressing VIM-2 beta lactamase gene by Etest.
The test system of test [4] is Pseudomonas aeruginosa. Nature of the test: Antimicrobial activity against Pseudomonas aeruginosa isolate 27135 expressing VIM-2 beta lactamase gene by Etest.
The subject of test [5] is Pseudomonas aeruginosa. Nature of the test: Antimicrobial activity against Pseudomonas aeruginosa isolate M136074 expressing IMP-22 beta lactamase gene by Etest in presence of Tazobactam.
The subject of test [6] is Pseudomonas aeruginosa. The test can be described thus: Antimicrobial activity against Pseudomonas aeruginosa isolate 26285 expressing IMP-13 beta lactamase gene by Etest in presence of Tazobactam.
The test system of test [7] is Pseudomonas aeruginosa. Nature of the test: Antimicrobial activity against Pseudomonas aeruginosa isolate 22843 expressing VIM-2 beta lactamase gene by Etest in presence of Tazobactam.
The test system of test [8] is Pseudomonas aeruginosa. The test can be described thus: Antimicrobial activity against Pseudomonas aeruginosa isolate 27135 expressing VIM-2 beta lactamase gene by Etest in presence of Tazobactam.
For test [9], the system named is Pseudomonas aeruginosa. The test can be described thus: Antimicrobial activity against Pseudomonas aeruginosa isolate M136074 expressing IMP-22 beta lactamase gene by Etest in presence of clavulanate.
Test [10] has as its system Pseudomonas aeruginosa. Nature of the test: Antimicrobial activity against Pseudomonas aeruginosa isolate 26285 expressing IMP-13 beta lactamase gene by Etest in presence of clavulanate.
In test [11] the test system is Pseudomonas aeruginosa. The test can be described thus: Antimicrobial activity against Pseudomonas aeruginosa isolate 22843 expressing VIM-2 beta lactamase gene by Etest in presence of clavulanate.
The subject of test [12] is Pseudomonas aeruginosa. Nature of the test: Antimicrobial activity against Pseudomonas aeruginosa isolate 27135 expressing VIM-2 beta lactamase gene by Etest in presence of clavulanate.

In brackets after ≈: the same amount, converted by molar mass. Some results are limits rather than exact numbers.

Broadly, the MIC is the lowest concentration found to suppress growth.

For `C[C@@H](O)[C@H]1C(=O)N2C(C(=O)O)=C(S[C@@H]3CN[C@H](C(=O)N(C)C)C3)[C@H](C)[C@H]12` [MEROPENEM], the MIC in test [1] is 24 µg/mL (≈ 62.6 µM); in test [2], over 32 µg/mL; in test [3], over 32 µg/mL; in test [4], over 32 µg/mL.
With GENTAMICIN, the MIC in [1] is 4 µg/mL; in [2] it was over 256 µg/mL; in test [3], 8 µg/mL; in test [4], 8 µg/mL.
Consider `NCC[C@H](O)C(=O)N[C@@H]1C[C@H](N)[C@@H](O[C@H]2O[C@H](CN)[C@@H](O)[C@H](O)[C@H]2O)[C@H](O)[C@H]1O[C@H]1O[C@H](CO)[C@@H](O)[C@H](N)[C@H]1O` [AMIKACIN], for which the MIC in test [1] is 6 µg/mL (≈ 10.2 µM); in [2], 24 µg/mL (≈ 41 µM); in test [3], over 256 µg/mL; in test [4] it was over 256 µg/mL.
For COLISTIN, the MIC amounted to 6 µg/mL in test [1], 6 µg/mL in test [2], 4 µg/mL in test [3] and 4 µg/mL in test [4].
For the compound `C[C@@H](O)[C@H]1C(=O)N2C(C(=O)O)=C(SCCNC=N)C[C@H]12` [IMIPENEM ANHYDROUS], the MIC in test [1] is 12 µg/mL (≈ 40.1 µM); in test [2], over 32 µg/mL; in test [3], over 32 µg/mL; in [4], over 32 µg/mL.
With `CO/N=C(\C(=O)N[C@@H]1C(=O)N2C(C(=O)[O-])=C(C[N+]3(C)CCCC3)CS[C@H]12)c1csc(N)n1` [CEFEPIME], the minimal inhibitory concentration (MIC) in test [1] was 128 µg/mL (≈ 266 µM); in test [2] it was 128 µg/mL (≈ 266 µM); in test [4], 24 µg/mL (≈ 49.9 µM).
On to `O=C(O)c1cn(C2CC2)c2cc(N3CCNCC3)c(F)cc2c1=O` [CIPROFLOXACIN], for which the MIC in test [1] was 32 µg/mL (≈ 96.6 µM); in test [2], over 32 µg/mL; in [3], over 32 µg/mL; in test [4] it was over 32 µg/mL.
With `CCN1CCN(C(=O)N[C@@H](C(=O)N[C@@H]2C(=O)N3[C@@H]2SC(C)(C)[C@@H]3C(=O)O)c2ccccc2)C(=O)C1=O` [PIPERACILLIN], the MIC is 12 µg/mL (≈ 23.2 µM) in test [1]; 16 µg/mL (≈ 30.9 µM) in test [2]; 32 µg/mL (≈ 61.8 µM) in test [3]; 32 µg/mL (≈ 61.8 µM) in test [4]; 8 µg/mL in test [5]; 16 µg/mL in test [6]. Besides, the MIC in test [7] and in test [8] was 32 µg/mL each time.
On to `CC1(C)S[C@@H]2[C@H](NC(=O)[C@H](C(=O)O)c3ccsc3)C(=O)N2[C@H]1C(=O)O` [TICARCILLIN], for which the MIC in test [1], in [2], in [3], in test [4], in test [9] and in test [10] was over 256 µg/mL each time. For the same compound, the minimal inhibitory concentration (MIC) in [11] and in test [12] was over 256 µg/mL throughout.
As to `NC[C@H]1O[C@H](O[C@H]2[C@H](O)[C@@H](O[C@H]3O[C@H](CO)[C@@H](O)[C@H](N)[C@H]3O)[C@H](N)C[C@@H]2N)[C@H](N)C[C@@H]1O` [TOBRAMYCIN], the minimum inhibitory concentration (MIC) was 2 µg/mL (≈ 4.28 µM) in test [1], 128 µg/mL (≈ 274 µM) in test [2], over 256 µg/mL in [3] and over 256 µg/mL in test [4].
On to `CO/N=C(\C(=O)N[C@@H]1C(=O)N2C(C(=O)O)=C(COC(C)=O)CS[C@H]12)c1csc(N)n1` [CEFOTAXIME], for which the MIC in test [1], in test [2], in [3] and in test [4] was over 256 µg/mL in each case.
With `C[C@H]1[C@H](NC(=O)/C(=N\OC(C)(C)C(=O)O)c2csc(N)n2)C(=O)N1S(=O)(=O)O` [AZTREONAM], the MIC worked out at 4 µg/mL (≈ 9.19 µM) in [1], 12 µg/mL (≈ 27.6 µM) in test [2], 12 µg/mL (≈ 27.6 µM) in test [3] and 12 µg/mL (≈ 27.6 µM) in test [4].
Regarding `CC(C)(O/N=C(\C(=O)N[C@@H]1C(=O)N2C(C(=O)[O-])=C(C[n+]3ccccc3)CS[C@H]12)c1csc(N)n1)C(=O)O` [CEFTAZIDIME], the minimum inhibitory concentration (MIC) in [1] is over 256 µg/mL; in test [2], over 256 µg/mL; in test [3] it was 12 µg/mL (≈ 22 µM); in test [4] it was 12 µg/mL (≈ 22 µM).

These data come from ChEMBL document CHEMBL1649164, “First organisms with acquired metallo-beta-lactamases (IMP-13, IMP-22, and VIM-2) reported in Austria” (2009).
